From the supplement of paper PMC10307832

Compound: CC(C)(C)c1cc(NC(=O)Nc2ccc(-c3cn4c(n3)sc3cc(OCCN5CCOCC5)ccc34)cc2)no1 [Quizartinib] + CC(C)C[C@H](NC(=O)[C@H](Cc1ccccc1)NC(=O)c1cnccn1)B(O)O [Bortezomib] (partner 0.002 µM)
Test: relative viability (nuclei count vs DMSO), 5 days (fraction); higher = more cells survive
Settings: first compound 0.001 µM
Summary of the method: (§1)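 Lung cancer cell lines in 1536-well plates got either a single drug or a fixed anchor-drug dose together with five library-drug doses (not always all listed) in √10 steps, by pin tool, on the day after seeding. Nuclei were counted after 5 days, and relative viability is the treated-to-vehicle ratio of nuclei counts. Values are medians of duplicate plates.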

Compared with LCLC-103H, NCI-H1734 is lower in relative viability: 0.871 for the first, 0.862 for the second.

Compared with HCC-78, COR-L 105 is higher in relative viability: 0.435 for the first, 0.64 for the second.

Compared with HCC-15, HARA is higher in relative viability: 0.759 for the first, 0.931 for the second.

Compared with NCI-H1975, NCI-H2126 is higher in relative viability: 0.333 for the first, 0.708 for the second.

First: EMC-BAC-2
Second: SK-LU-1
The relative viability of the first is higher: 0.986 for the first, 0.95 for the second.

Going from NCI-H661 to HOP-62, the relative viability falls from 0.747 to 0.564.

Going from PC-14 to NCI-H1993, the relative viability rises from 0.768 to 1.2.

For NCI-H2405, the relative viability was 0.689.

Same assay, conditions: first compound 0.003162 µM

Going from LCLC-103H to NCI-H1734, the relative viability falls from 1.01 to 0.769.

First: HCC-78
Second: COR-L 105
The relative viability of the first is lower: 0.477 for the first, 0.632 for the second.

First: HCC-15
Second: HARA
The relative viability of the first is lower: 0.992 for the first, 1.11 for the second.

Going from NCI-H1975 to NCI-H2126, the relative viability rises from 0.374 to 1.06.

Compared with EMC-BAC-2, SK-LU-1 is lower in relative viability: 1.14 for the first, 1.12 for the second.

Going from NCI-H661 to HOP-62, the relative viability falls from 0.903 to 0.72.

Compared with PC-14, NCI-H1993 is higher in relative viability: 0.846 for the first, 1.17 for the second.

Work on NCI-H2405 yielded a relative viability of 1.01.

Same assay, conditions: first compound 0.01 µM

First: LCLC-103H
Second: NCI-H1734
The relative viability of the first is lower: 0.994 for the first, 1.05 for the second.

First: HCC-78
Second: COR-L 105
The relative viability of the first is lower: 0.546 for the first, 0.634 for the second.

Compared with HCC-15, HARA is higher in relative viability: 0.987 for the first, 1.15 for the second.

Going from NCI-H1975 to NCI-H2126, the relative viability rises from 0.389 to 1.12.

Going from EMC-BAC-2 to SK-LU-1, the relative viability rises from 0.985 to 1.24.

Going from NCI-H661 to HOP-62, the relative viability rises from 0.684 to 0.73.

First: PC-14
Second: NCI-H1993
The relative viability of the first is lower: 0.971 for the first, 1.19 for the second.

Cell Line NCI-H2405 has a relative viability of 1.01.

Same assay, conditions: first compound 0.03162 µM

First: LCLC-103H
Second: NCI-H1734
The relative viability of the first is higher: 1 for the first, 0.776 for the second.

Compared with HCC-78, COR-L 105 is higher in relative viability: 0.511 for the first, 0.632 for the second.

First: HCC-15
Second: HARA
The relative viability of the first is lower: 0.984 for the first, 1.07 for the second.

First: NCI-H1975
Second: NCI-H2126
The relative viability of the first is lower: 0.368 for the first, 1.14 for the second.

First: EMC-BAC-2
Second: SK-LU-1
The relative viability of the first is lower: 0.857 for the first, 0.969 for the second.

Going from NCI-H661 to HOP-62, the relative viability falls from 0.791 to 0.517.

Going from PC-14 to NCI-H1993, the relative viability rises from 0.826 to 1.02.

In the case of NCI-H2405, the relative viability is reported as 1.01.

Same assay, conditions: first compound 0.1 µM

Compared with LCLC-103H, NCI-H1734 is lower in relative viability: 1.12 for the first, 0.944 for the second.

Going from HCC-78 to COR-L 105, the relative viability rises from 0.448 to 0.617.

Compared with HCC-15, HARA is higher in relative viability: 0.988 for the first, 1.17 for the second.

First: NCI-H1975
Second: NCI-H2126
The relative viability of the first is lower: 0.497 for the first, 1.15 for the second.

Going from EMC-BAC-2 to SK-LU-1, the relative viability rises from 1.05 to 1.2.

Compared with NCI-H661, HOP-62 is lower in relative viability: 0.878 for the first, 0.749 for the second.

Compared with PC-14, NCI-H1993 is higher in relative viability: 0.644 for the first, 1.33 for the second.

NCI-H2405 was tested, and the relative viability was 0.984.

Compound: COCC[n+]1c2c(n(Cc3cnccn3)c1C)C(=O)c1ccccc1C2=O [YM155] + C[C@@H](Oc1cc(-c2cnn(C3CCNCC3)c2)cnc1N)c1c(Cl)ccc(F)c1Cl [Crizotinib] (partner 1 µM)
Test: as above
Settings: first compound 0.002 µM
Summary of the method: as §1

Compared with LCLC-103H, NCI-H1734 is lower in relative viability: 0.971 for the first, 0.646 for the second.

Going from HCC-78 to COR-L 105, the relative viability rises from 0.328 to 0.907.

Going from HCC-15 to HARA, the relative viability rises from 0.747 to 1.04.

First: NCI-H1975
Second: NCI-H2126
The relative viability of the first is lower: 0.941 for the first, 0.988 for the second.

Going from EMC-BAC-2 to SK-LU-1, the relative viability rises from 0.786 to 0.871.

Compared with NCI-H661, HOP-62 is lower in relative viability: 1.01 for the first, 0.91 for the second.

First: PC-14
Second: NCI-H1993
The relative viability of the first is lower: 0.948 for the first, 1.01 for the second.

NCI-H2405 showed a relative viability of 0.8.

Same assay, conditions: first compound 0.006325 µM

First: LCLC-103H
Second: NCI-H1734
The relative viability of the first is higher: 1.03 for the first, 0.662 for the second.

Compared with HCC-78, COR-L 105 is higher in relative viability: 0.322 for the first, 0.807 for the second.

Going from HCC-15 to HARA, the relative viability rises from 0.887 to 1.13.

Compared with NCI-H1975, NCI-H2126 is lower in relative viability: 1.03 for the first, 0.967 for the second.

First: EMC-BAC-2
Second: SK-LU-1
The relative viability of the first is lower: 0.765 for the first, 0.931 for the second.

First: NCI-H661
Second: HOP-62
The relative viability of the first is lower: 0.942 for the first, 1.01 for the second.

First: PC-14
Second: NCI-H1993
The relative viability of the first is higher: 0.931 for the first, 0.825 for the second.

NCI-H2405 gave a relative viability of 0.82.

Same assay, conditions: first compound 0.02 µM

First: LCLC-103H
Second: NCI-H1734
The relative viability of the first is higher: 1.03 for the first, 0.766 for the second.

Going from HCC-78 to COR-L 105, the relative viability rises from 0.325 to 0.591.

Compared with HCC-15, HARA is higher in relative viability: 0.815 for the first, 1.09 for the second.

Going from NCI-H1975 to NCI-H2126, the relative viability rises from 0.995 to 1.07.

First: EMC-BAC-2
Second: SK-LU-1
The relative viability of the first is lower: 0.758 for the first, 1.11 for the second.

Compared with NCI-H661, HOP-62 is lower in relative viability: 1.05 for the first, 0.919 for the second.

Going from PC-14 to NCI-H1993, the relative viability falls from 1.04 to 0.703.

NCI-H2405 gave a relative viability of 0.831.

Same assay, conditions: first compound 0.06325 µM

Going from LCLC-103H to NCI-H1734, the relative viability falls from 1 to 0.675.

Going from HCC-78 to COR-L 105, the relative viability rises from 0.371 to 0.385.

Going from HCC-15 to HARA, the relative viability rises from 0.711 to 0.995.

First: NCI-H1975
Second: NCI-H2126
The relative viability of the first is lower: 0.633 for the first, 1.04 for the second.

Compared with EMC-BAC-2, SK-LU-1 is higher in relative viability: 0.7 for the first, 0.805 for the second.

Going from NCI-H661 to HOP-62, the relative viability rises from 0.798 to 0.983.

Compared with PC-14, NCI-H1993 is lower in relative viability: 0.818 for the first, 0.552 for the second.

In the case of NCI-H2405, the relative viability is reported as 0.644.

Compound: CC(C)(C)c1cc(NC(=O)Nc2ccc(-c3cn4c(n3)sc3cc(OCCN5CCOCC5)ccc34)cc2)no1 [Quizartinib] + CC(=O)Nc1cccc(-n2c(=O)n(C3CC3)c(=O)c3c(Nc4ccc(I)cc4F)n(C)c(=O)c(C)c32)c1 [Trametinib] (partner 0.02 µM)
Test: as above
Settings: first compound 0.001 µM
Summary of the method: as §1

Compared with LCLC-103H, NCI-H1734 is lower in relative viability: 0.658 for the first, 0.604 for the second.

Compared with HCC-78, COR-L 105 is lower in relative viability: 0.727 for the first, 0.449 for the second.

For HCC-15, the relative viability was 0.403.
